Experimental data taken from the supplement of paper PMC10307832.

Columns and labels:
Assay in all cases: relative viability (nuclei count vs DMSO), 5 days (fraction); higher = more cells survive
[1] = system: NCI-H2087
In short: (§1)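 Relative viability was taken as the ratio of nuclei in treated wells to nuclei in vehicle wells. Lung cancer cell lines in 1536-well plates received compounds by pin tool one day after seeding, either one drug alone or a fixed anchor-drug dose plus five library-drug doses (not always all listed) in √10 steps. Nuclei were counted on 4× images after 5 days of treatment, and values are medians of duplicate plates.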

[2] = system: HCC-78
In short: as §1

[3] = system: NCI-H1648
In short: as §1

[4] = system: HCC-44
In short: as §1

[5] = system: NCI-H322M
In short: as §1

[6] = system: EBC-1
In short: as §1

[7] = system: A549
In short: as §1

[8] = system: Calu-6
In short: as §1

[9] = system: NCI-H1703
In short: as §1

[10] = system: NCI-H1563
In short: as §1

[11] = system: IA-LM
In short: as §1

[12] = system: NCI-H1299
In short: as §1

CN1CCN(CCOc2cc(OC3CCOCC3)c3c(Nc4c(Cl)ccc5c4OCO5)ncnc3c2)CC1 [Saracatinib] + CC(=O)Nc1cccc(-n2c(=O)n(C3CC3)c(=O)c3c(Nc4ccc(I)cc4F)n(C)c(=O)c(C)c32)c1 [Trametinib] (partner 0.02 µM)
relative viability ([1]; first compound 0.02 µM): 0.24 | relative viability ([1]; first compound 0.2 µM): 0.142 | relative viability ([1]; first compound 0.6325 µM): 0.23 | relative viability ([1]; first compound 2 µM): 0.194 | relative viability ([2]; first compound 0.02 µM): 0.569 | relative viability ([2]; first compound 0.6325 µM): 0.869 | relative viability ([2]; first compound 2 µM): 0.523 | relative viability ([3]; first compound 0.02 µM): 0.436 | relative viability ([3]; first compound 0.2 µM): 0.47 | relative viability ([3]; first compound 0.6325 µM): 0.564 | relative viability ([3]; first compound 2 µM): 0.357 | relative viability ([4]; first compound 0.02 µM): 1.05 | relative viability ([4]; first compound 0.2 µM): 1.02 | relative viability ([4]; first compound 0.6325 µM): 1.18 | relative viability ([4]; first compound 2 µM): 1.21 | relative viability ([5]; first compound 0.02 µM): 0.529 | relative viability ([5]; first compound 0.2 µM): 0.449 | relative viability ([5]; first compound 0.6325 µM): 0.582 | relative viability ([5]; first compound 2 µM): 0.357

CN1CCN(CCOc2cc(OC3CCOCC3)c3c(Nc4c(Cl)ccc5c4OCO5)ncnc3c2)CC1 [Saracatinib] + CC(=O)c1c(C)c2cnc(Nc3ccc(N4CCNCC4)cn3)nc2n(C2CCCC2)c1=O [Palbociclib] (partner 0.5 µM)
relative viability ([1]; first compound 0.02 µM): 0.252 | relative viability ([1]; first compound 0.2 µM): 0.255 | relative viability ([1]; first compound 0.6325 µM): 0.303 | relative viability ([1]; first compound 2 µM): 0.179 | relative viability ([2]; first compound 0.02 µM): 0.461 | relative viability ([2]; first compound 0.2 µM): 0.406 | relative viability ([2]; first compound 0.6325 µM): 0.45 | relative viability ([2]; first compound 2 µM): 0.342 | relative viability ([3]; first compound 0.02 µM): 0.252 | relative viability ([3]; first compound 0.2 µM): 0.291 | relative viability ([3]; first compound 0.6325 µM): 0.304 | relative viability ([3]; first compound 2 µM): 0.307 | relative viability ([4]; first compound 0.02 µM): 1.01 | relative viability ([4]; first compound 0.2 µM): 0.974 | relative viability ([4]; first compound 0.6325 µM): 0.979 | relative viability ([4]; first compound 2 µM): 0.938 | relative viability ([5]; first compound 0.02 µM): 0.534 | relative viability ([5]; first compound 0.2 µM): 0.38 | relative viability ([5]; first compound 0.6325 µM): 0.46 | relative viability ([5]; first compound 2 µM): 0.306

CN1CCN(CCOc2cc(OC3CCOCC3)c3c(Nc4c(Cl)ccc5c4OCO5)ncnc3c2)CC1 [Saracatinib] + C[C@@H](Oc1cc(-c2cnn(C3CCNCC3)c2)cnc1N)c1c(Cl)ccc(F)c1Cl [Crizotinib] (partner 1 µM)
relative viability ([6]; first compound 0.02 µM): 0.174 | relative viability ([6]; first compound 0.2 µM): 0.198 | relative viability ([6]; first compound 0.6325 µM): 0.188 | relative viability ([6]; first compound 2 µM): 0.181 | relative viability ([1]; first compound 0.02 µM): 0.993 | relative viability ([1]; first compound 0.2 µM): 0.697 | relative viability ([1]; first compound 0.6325 µM): 1.07 | relative viability ([1]; first compound 2 µM): 1.02 | relative viability ([7]; first compound 0.02 µM): 0.74 | relative viability ([7]; first compound 0.2 µM): 0.738 | relative viability ([7]; first compound 0.6325 µM): 0.649 | relative viability ([7]; first compound 2 µM): 0.549 | relative viability ([2]; first compound 0.02 µM): 0.355 | relative viability ([2]; first compound 0.2 µM): 0.315 | relative viability ([2]; first compound 0.6325 µM): 0.317 | relative viability ([2]; first compound 2 µM): 0.207 | relative viability ([8]; first compound 0.02 µM): 0.769 | relative viability ([8]; first compound 0.2 µM): 0.594 | relative viability ([8]; first compound 0.6325 µM): 0.662 | relative viability ([8]; first compound 2 µM): 0.526 | relative viability ([9]; first compound 0.02 µM): 0.553 | relative viability ([9]; first compound 0.2 µM): 0.633 | relative viability ([9]; first compound 0.6325 µM): 0.23 | relative viability ([9]; first compound 2 µM): 0.0951 | relative viability ([4]; first compound 0.02 µM): 0.859 | relative viability ([4]; first compound 0.2 µM): 0.738 | relative viability ([4]; first compound 0.6325 µM): 0.952 | relative viability ([4]; first compound 2 µM): 1.01 | relative viability ([5]; first compound 0.02 µM): 0.971 | relative viability ([5]; first compound 0.2 µM): 0.831 | relative viability ([5]; first compound 0.6325 µM): 0.916 | relative viability ([5]; first compound 2 µM): 0.6 | relative viability ([10]; first compound 0.02 µM): 0.905 | relative viability ([10]; first compound 0.2 µM): 0.778 | relative viability ([10]; first compound 0.6325 µM): 0.677 | relative viability ([10]; first compound 2 µM): 0.635 | relative viability ([11]; first compound 0.02 µM): 1.07 | relative viability ([11]; first compound 0.2 µM): 1.08 | relative viability ([11]; first compound 0.6325 µM): 1.24 | relative viability ([11]; first compound 2 µM): 0.738 | relative viability ([12]; first compound 0.02 µM): 0.942 | relative viability ([12]; first compound 0.2 µM): 0.948 | relative viability ([12]; first compound 0.6325 µM): 0.985 | relative viability ([12]; first compound 2 µM): 0.781
